Test results reported in PubChem BioAssay AID1963826 (Molecular Pharmacology Branch, DTP, NCI, 2024).

Tested on: 926638-142-R-J1-PDC complex spheroid viability
Experiment: Anticancer human tumor 926638-142-R-J1-PDC patient-derived endometrial carcinoma cell line growth inhibition [POLQ]
Conditions: for IC50: curve of first compound; for viability, T/C: stronger effect = lower value; active means viability on the fitted dose curve at most 10% of control; inactive means the rest
Method in brief: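 Complex spheroid viability model combining PDC tumour cells with endothelial (HUVEC) and MSC stromal cells. Novobiocin, ART-558 or RP6685 were tested singly and in combination with standard and investigational anticancer drugs. Each was titrated in half-log steps from near clinical Cmax, or from 10 microM where Cmax was unknown.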

[1] = second compound 0.0316 µM, first compound 0.0316 µM
[2] = second compound 0.0316 µM, first compound 0.1 µM
[3] = second compound 0.0316 µM, first compound 0.316 µM
[4] = second compound 0.0316 µM, first compound 1 µM
[5] = second compound 0.0316 µM, first compound 3.16 µM
[6] = second compound 0.0316 µM, first compound 10 µM
[7] = second compound 0.1 µM, first compound 0.0316 µM
[8] = second compound 0.1 µM, first compound 0.1 µM
[9] = second compound 0.1 µM, first compound 0.316 µM
[10] = second compound 0.1 µM, first compound 1 µM
[11] = second compound 0.1 µM, first compound 3.16 µM
[12] = second compound 0.1 µM, first compound 10 µM
[13] = second compound 0.316 µM, first compound 0.0316 µM
[14] = second compound 0.316 µM, first compound 0.1 µM
[15] = second compound 0.316 µM, first compound 0.316 µM
[16] = second compound 0.316 µM, first compound 1 µM
[17] = second compound 0.316 µM, first compound 3.16 µM
[18] = second compound 0.316 µM, first compound 10 µM
[19] = second compound 1 µM, first compound 0.0316 µM
[20] = second compound 1 µM, first compound 0.1 µM
[21] = second compound 1 µM, first compound 0.316 µM
[22] = second compound 1 µM, first compound 1 µM
[23] = second compound 1 µM, first compound 3.16 µM
[24] = second compound 1 µM, first compound 10 µM
[25] = second compound 3.16 µM, first compound 0.0316 µM
[26] = second compound 3.16 µM, first compound 0.1 µM
[27] = second compound 3.16 µM, first compound 0.316 µM
[28] = second compound 3.16 µM, first compound 1 µM
[29] = second compound 3.16 µM, first compound 3.16 µM
[30] = second compound 3.16 µM, first compound 10 µM
[31] = second compound 10 µM, first compound 0.0316 µM
[32] = second compound 10 µM, first compound 0.1 µM
[33] = second compound 10 µM, first compound 0.316 µM
[34] = second compound 10 µM, first compound 1 µM
[35] = second compound 10 µM, first compound 3.16 µM
[36] = second compound 10 µM, first compound 10 µM
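Further: spheroids exposed to drugs for one week before readout.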
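Wherever viability, T/C is given: percent viability relative to DMSO vehicle control wells set as 100%.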

CCc1cc2c(N3CCc4c(cc(Cn5ccnc5)cc4-c4cn(C)nc4C(F)(F)F)C3=O)ccnc2c(OC)n1 + Cc1cccc(N(C)C(=O)C2C(O)CCN2c2nc(C)cc(C(F)(F)F)c2C#N)c1
356 nM: IC50 (second compound 0.1 µM)
346 nM: IC50 (second compound 1 µM)
1290 nM: IC50 (second compound 0.316 µM)
483 nM: IC50 (second compound 3.16 µM)
379 nM: IC50 (second compound 10 µM)
inactive: viability, T/C [1] 76.8% | viability, T/C [2] 74.5% | viability, T/C [3] 46.7% | viability, T/C [4] 44.8% | viability, T/C [5] 38.6% | viability, T/C [6] 29.6% | viability, T/C [7] 112% | viability, T/C [8] 70.1% | viability, T/C [9] 48.3% | viability, T/C [10] 45.5% | viability, T/C [11] 41.8% | viability, T/C [12] 29.1% | viability, T/C [13] 70.8% | viability, T/C [14] 66.1% | viability, T/C [15] 59% | viability, T/C [16] 55% | viability, T/C [17] 40% | viability, T/C [18] 26.7% | viability, T/C [19] 83.4% | viability, T/C [20] 59.4% | viability, T/C [21] 47% | viability, T/C [22] 52.7% | viability, T/C [23] 37.3% | viability, T/C [24] 33% | viability, T/C [25] 87.1% | viability, T/C [26] 70.9% | viability, T/C [27] 55.5% | viability, T/C [28] 40.9% | viability, T/C [29] 32.1% | viability, T/C [30] 25.7% | viability, T/C [31] 85.9% | viability, T/C [32] 59.4% | viability, T/C [33] 58.4% | viability, T/C [34] 36.7% | viability, T/C [35] 34.2% | viability, T/C [36] 23.6%
287 nM: IC50 (second compound 0.0316 µM)

COc1cc2cc(C(=O)CCC(=O)O)sc2cc1OC + Cc1cccc(N(C)C(=O)C2C(O)CCN2c2nc(C)cc(C(F)(F)F)c2C#N)c1
inactive: viability, T/C [1] 101% | viability, T/C [2] 92.9% | viability, T/C [3] 110% | viability, T/C [4] 96.2% | viability, T/C [5] 98.3% | viability, T/C [6] 77.4% | viability, T/C [7] 104% | viability, T/C [8] 98.4% | viability, T/C [9] 99.7% | viability, T/C [10] 87.1% | viability, T/C [11] 83.2% | viability, T/C [12] 80.3% | viability, T/C [13] 119% | viability, T/C [14] 115% | viability, T/C [15] 109% | viability, T/C [16] 84.4% | viability, T/C [17] 98.2% | viability, T/C [18] 88.7% | viability, T/C [19] 99.8% | viability, T/C [20] 111% | viability, T/C [21] 76.9% | viability, T/C [22] 85.8% | viability, T/C [23] 94% | viability, T/C [24] 90.1% | viability, T/C [25] 79.5% | viability, T/C [26] 95.5% | viability, T/C [27] 99.5% | viability, T/C [28] 76.5% | viability, T/C [29] 110% | viability, T/C [30] 94.6% | viability, T/C [31] 79.5% | viability, T/C [32] 95.7% | viability, T/C [33] 94.5% | viability, T/C [34] 87.2% | viability, T/C [35] 104% | viability, T/C [36] 79.9%
> 10000 nM: IC50 (second compound 0.0316 µM) | IC50 (second compound 0.1 µM) | IC50 (second compound 0.316 µM) | IC50 (second compound 1 µM) | IC50 (second compound 3.16 µM) | IC50 (second compound 10 µM)

O=C(Nc1ccc(O)c(NS(=O)(=O)c2ccc(F)cc2)c1)c1ccc(-c2ccccc2)cc1 + Cc1cccc(N(C)C(=O)C2C(O)CCN2c2nc(C)cc(C(F)(F)F)c2C#N)c1
inactive: viability, T/C [1] 93.9% | viability, T/C [2] 93.2% | viability, T/C [3] 91.6% | viability, T/C [4] 91% | viability, T/C [5] 90.5% | viability, T/C [6] 62.5% | viability, T/C [7] 104% | viability, T/C [8] 78.6% | viability, T/C [9] 81.2% | viability, T/C [10] 94% | viability, T/C [11] 90.1% | viability, T/C [12] 62.5% | viability, T/C [13] 94.3% | viability, T/C [14] 105% | viability, T/C [15] 86.6% | viability, T/C [16] 87.8% | viability, T/C [17] 94.5% | viability, T/C [18] 67.2% | viability, T/C [19] 90.3% | viability, T/C [20] 94.8% | viability, T/C [21] 88.1% | viability, T/C [22] 96.9% | viability, T/C [23] 85.6% | viability, T/C [24] 73.1% | viability, T/C [25] 79.6% | viability, T/C [26] 91.5% | viability, T/C [27] 82.1% | viability, T/C [28] 97.6% | viability, T/C [29] 95.7% | viability, T/C [30] 68.5% | viability, T/C [31] 79.1% | viability, T/C [32] 75.8% | viability, T/C [33] 74.6% | viability, T/C [34] 78.7% | viability, T/C [35] 80.7% | viability, T/C [36] 55.7%
> 10000 nM: IC50 (second compound 0.0316 µM) | IC50 (second compound 0.1 µM) | IC50 (second compound 0.316 µM) | IC50 (second compound 1 µM) | IC50 (second compound 3.16 µM) | IC50 (second compound 10 µM)

COc1cccc2c1C(=O)c1c(O)c3c(c(O)c1C2=O)CC(O)(C(=O)CO)CC3OC1CC(N)C(O)C(C)O1 (stereo not drawn) + Nc1ccc(C#CCN(C(=O)Cc2ncc(C(F)(F)F)cc2C(F)(F)F)c2ccc(F)cc2)nn1
118 nM: IC50 (second compound 3.16 µM)
140 nM: IC50 (second compound 0.1 µM)
137 nM: IC50 (second compound 0.316 µM)
active: viability, T/C [4] 8.06% | viability, T/C [5] 0.22% | viability, T/C [6] 0.4% | viability, T/C [10] 6.81% | viability, T/C [11] 0.22% | viability, T/C [12] 0.36% | viability, T/C [16] 7.2% | viability, T/C [17] 0.19% | viability, T/C [18] 0.51% | viability, T/C [22] 7.01% | viability, T/C [23] 0.23% | viability, T/C [24] 0.29% | viability, T/C [28] 7.1% | viability, T/C [29] 0.27% | viability, T/C [30] 0.31% | viability, T/C [34] 3.99% | viability, T/C [35] 0.31% | viability, T/C [36] 0.43%
167 nM: IC50 (second compound 0.0316 µM)
127 nM: IC50 (second compound 10 µM)
inactive: viability, T/C [1] 86.7% | viability, T/C [2] 69.4% | viability, T/C [3] 25.7% | viability, T/C [7] 90.7% | viability, T/C [8] 59.6% | viability, T/C [9] 26.1% | viability, T/C [13] 78.7% | viability, T/C [14] 58.9% | viability, T/C [15] 26.5% | viability, T/C [19] 89% | viability, T/C [20] 62.4% | viability, T/C [21] 27.4% | viability, T/C [25] 80.6% | viability, T/C [26] 54.4% | viability, T/C [27] 23.2% | viability, T/C [31] 74% | viability, T/C [32] 57.6% | viability, T/C [33] 20.7%
150 nM: IC50 (second compound 1 µM)
